The source of these data is paper PMC12395807, “Chemoreceptor family in plant-associated bacteria responds preferentially to the plant signal molecule glycerol 3-phosphate” (Genome Biology, 2025).

The Kd is the equilibrium constant for the complex coming apart. Read a low Kd as higher affinity.

For test [1], the target named is LBD of chemoreceptor R10 (WP_028866120.1). In words: ITC binding to R10-LBD. The arrangement: species or system Psychromonas aquimarina. As to conditions: 20 °C, Nb = no binding. How it is done: (§1) Plasmids for the overexpression of the different proteins were transformed into E. coli BL21(DE3). The resulting strains were grown under continuous stirring (200 rpm) at 30 °C in 2-L Erlenmeyer flasks containing 500 mL of LB medium supplemented with 50 μg/mL kanamycin. At an OD660 of 0.5, protein expression was induced by the addition of 0.1 mM isopropyl β-D-1-thiogalactopyranoside. Growth was continued at 16 °C overnight prior to cell harvesting by centrifugation at 10,000 × g for 20 min. Cell pellets were resuspended in buffer A (Additional file 2: Table S4) and subsequently broken by French press treatment at 62.5 lb/in^2. After centrifugation at 20,000 × g for 30 min, the supernatants were loaded onto 5-mL HisTrap HP columns (Amersham Biosciences) equilibrated with buffer A, and the proteins were eluted with a linear gradient of buffer B (Additional file 2: Table S4). All proteins contain a hexa-histidine tag at the N-terminal extension (Additional file 2: Table S3) and were purified at 4 °C. The purified proteins were dialyzed overnight into the corresponding analysis buffers (Additional file 2: Table S4) for immediate analysis.
(§2) All experiments were conducted on a VP microcalorimeter (Microcal, MA) at 15 °C for PacP-LBD and at 20 °C for the remaining proteins. Proteins were dialyzed into the analysis buffers specified in Additional file 2: Table S4, placed into the sample cell and titrated with aliquots of ligand solutions (1 to 10 mM) freshly prepared in dialysis buffer. The mean enthalpies measured from the injection of the ligands into the analysis buffer were subtracted from the raw titration data prior to data analysis with the MicroCal version of ORIGIN. The data were fitted with the “One binding site model” of ORIGIN.

Test [2] has as its target LBD of chemoreceptor R9 (WP_189529961.1) (Paludibacterium paludis, UniProt A0A918NWY2). As to the kind of experiment: ITC binding to R9-LBD. As to conditions: 20 °C, Nb = no binding. The method, then:
as §1, §2

Another test relates to P. atrosepticum SCRI1043. As to the kind of experiment: Quantitative capillary chemotaxis assay, wild type. Type of test: cell-based, Pectobacterium atrosepticum. The note with it: wild type SCRI1043, 1 mM ligand, 30 min. The method, then: (§3) Overnight cultures of P. atrosepticum SCRI1043 were grown at 30 °C in minimal medium. At an OD660 of 0.4–0.45, the cultures were washed twice with chemotaxis buffer (50 mM K2HPO4/KH2PO4, 20 μM EDTA, 0.05% (v/v) glycerol, pH 7.0) and diluted to an OD660 of 0.1 in the same buffer. Subsequently, 230 μL of the resulting bacterial suspension was placed into the wells of 96-well plates. One-microliter capillary tubes (P1424, Microcaps; Drummond Scientific) were heat-sealed at one end and filled with either chemotaxis buffer (negative control) or chemotaxis buffer containing PacP ligands at a concentration of 1 mM. The capillaries were immersed in the bacterial suspensions at their open ends. After 30 min at room temperature, the capillaries were removed from the bacterial suspensions, rinsed with sterile water, and the contents were expelled into 1 mL of 40 mM K2HPO4, 15 mM KH2PO4. Serial dilutions were plated onto minimal medium supplemented with 15 mM glucose as the carbon source. The number of colony-forming units was determined after 36 h of incubation at 30 °C. In all the cases, the data were corrected with the number of cells that swam into the buffer-containing capillaries.

The subject of test [3] is P. atrosepticum SCRI1043 pacP mutant (MpacP). In words: Quantitative capillary chemotaxis assay, pacP mutant. Type of test: cell-based, Pectobacterium atrosepticum. As to conditions: 1 mM ligand.
Description: A mutant defective in ECA_RS12390 was constructed by homologous recombination using a derivative plasmid of the suicide vector pKNG101. Briefly, a 0.5-kb fragment corresponding to the region encoding the LBD of ECA_RS12390 was amplified by the primers specified in Additional file 2: Table S2 and cloned into pGEM®-T. The resulting plasmid pGEM::ECA_RS12390 was digested with XmaI, and the 0.5-kb insert was cloned into the same site at pKNG101 to generate pKNG101::ECA_RS12390. This plasmid was subsequently transformed into P. atrosepticum SRCI1043 via biparental conjugation using E. coli β2163. All the plasmids were verified by PCR and sequencing. The pETb(+) derivatives encoding the LBD of the different receptors analyzed in this study (Table 1) were purchased from GeneScript. Plasmid pBBR-ECA_RS12390 was constructed by amplifying the pacP gene using the primers detailed in Additional file 2: Table S2 and cloning of the PCR product into the NdeI/BamHI sites of pBBR1MCS2_START. The sequences of the proteins analyzed in this study are provided in Additional file 2: Table S3. The ECA_RS12390 nucleotide sequence is available in the published genome of P. atrosepticum SCRI1043 [60].
as §3

Test [4] deals with Pectobacterium atrosepticum SCRI1043. As to the kind of experiment: Growth experiment, sole carbon source. Format: cell-based. As to conditions: PFM9 minimal medium, 5 mM ligand, 30 °C, 48 h. How it is done:
(§4) P. atrosepticum SCRI1043 was cultured overnight in phosphate-free M9-based medium (PFM9) supplemented with 20 mM glucose as the carbon source and 500 µM inorganic phosphate as the phosphate source. Cultures were washed and then diluted to an OD600 of 0.02 in PFM9 supplemented with different PacP ligands as the sole carbon or phosphorous source at a final concentration of 5 mM. Subsequently, 200 µL aliquots of these cultures were transferred into microwell plates, which were subsequently grown at 30 °C on a Bioscreen microbiological growth analyzer (Oy Growth Curves Ab Ltd., Helsinki, Finland) for 48 h.

The target in test [5] is LBD of chemoreceptor R4 (WP_158281851.1) (Rivihabitans pingtungensis, UniProt A0A318KJN4). In words: ITC binding to R4-LBD. As to conditions: 20 °C, Nb = no binding. Also noted: species or system Rivicola pingtungensis. How it is done: as §1, §2
Sequence of LBD of chemoreceptor R4 (WP_158281851.1) (A0A318KJN4 entry or part of it): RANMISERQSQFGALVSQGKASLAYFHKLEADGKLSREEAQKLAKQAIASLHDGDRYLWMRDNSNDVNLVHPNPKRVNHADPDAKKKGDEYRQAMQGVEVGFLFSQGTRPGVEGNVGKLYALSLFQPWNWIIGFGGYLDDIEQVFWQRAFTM
Test [6] addresses LBD of chemoreceptor R3 (WP_006464688.1) (Herbaspirillum frisingense, UniProt A0ABU1PC34). In words: ITC binding to R3-LBD. The note with it: 20 °C, Nb = no binding. How it is done:
as §1, §2

The target of test [7] is LBD of chemoreceptor R5 (WP_028444678.1). In words: ITC binding to R5-LBD. The arrangement: species or system Chitinimonas koreensis. As to conditions: 20 °C, Nb = no binding. How it is done:
as §1, §2

Test [8] concerns Pectobacterium atrosepticum SCRI1043. In words: Growth experiment, sole phosphorus source. Format: cell-based. As to conditions: PFM9 minimal medium, 5 mM ligand, 30 °C, 48 h. The method, then: as §4
The target in test [9] is ligand binding domain of the chemoreceptor ECA_RS12390 (PacP-LBD, R1, WP_011094075.1) (Pectobacterium atrosepticum, UniProt Q6D464). In words: ITC binding to PacP-LBD. As to conditions: 15 °C, Nb = no binding. The method, then: as §1, §2
Sequence of ligand binding domain of the chemoreceptor ECA_RS12390 (PacP-LBD, R1, WP_011094075.1) (Q6D464 entry or part of it): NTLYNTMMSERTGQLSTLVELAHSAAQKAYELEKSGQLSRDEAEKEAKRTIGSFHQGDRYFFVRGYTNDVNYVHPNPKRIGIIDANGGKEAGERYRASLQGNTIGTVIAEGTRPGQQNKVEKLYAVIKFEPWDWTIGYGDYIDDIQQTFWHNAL
For test [10], the system named is PacP-LBD mutant (Y86, H100, R105, Y121, K148 and Y167 replaced by alanine). In words: ITC binding to PacP-LBD binding site motif mutant. The arrangement: species or system Pectobacterium atrosepticum. As to conditions: 36 μM PacP-LBD alanine mutant; 1 mM glycerol 3-phosphate, 2.5 mM glyceraldehyde 3-phosphate. How it is done:
as §1, with “The purified proteins were dialyzed overnight into the corresponding analysis buffers (Additional file 2: Table S4) for immediate analysis.” left out
All experiments were conducted on a VP microcalorimeter (Microcal, MA) at 15 °C for PacP-LBD and at 20 °C for the remaining proteins. […] The mean enthalpies measured from the injection of the ligands into the analysis buffer were subtracted from the raw titration data prior to data analysis with the MicroCal version of ORIGIN. […]

A short description of the next test: ITC binding to R7-LBD. Also noted: species or system Methyloversatilis discipulorum. The note with it: 20 °C, Nb = no binding. The method, then:
as §1, §2

The target of test [11] is LBD of chemoreceptor R6 (WP_174062248.1). In words: ITC binding to R6-LBD. The note with it: 20 °C, Nb = no binding. Also noted: species or system Agrobacterium larrymoorei. The method, then:
as §1, §2

Test [12] relates to Bdellovibrio bacteriovorus. The arrangement: method as in PMID 119030, PMID 500565. As to conditions: cited from earlier work.
In another test the test system is Bacillus subtilis. The arrangement: method as in PMID 119030, PMID 500565. As to conditions: cited from earlier work.

Sequence of LBD of chemoreceptor R3 (WP_006464688.1) (A0ABU1PC34 entry or part of it): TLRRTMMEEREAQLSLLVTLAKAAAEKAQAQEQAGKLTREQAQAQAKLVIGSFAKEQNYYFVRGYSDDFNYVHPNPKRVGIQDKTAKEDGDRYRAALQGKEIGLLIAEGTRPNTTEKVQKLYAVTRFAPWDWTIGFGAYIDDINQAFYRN
Sequence of LBD of chemoreceptor R9 (WP_189529961.1) (A0A918NWY2 entry or part of it): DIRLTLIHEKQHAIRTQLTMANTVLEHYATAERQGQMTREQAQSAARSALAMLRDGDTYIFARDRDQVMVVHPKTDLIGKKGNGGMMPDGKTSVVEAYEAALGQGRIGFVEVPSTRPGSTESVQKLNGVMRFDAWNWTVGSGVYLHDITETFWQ

Take `O=CC(O)COP(=O)(O)O` (stereo not drawn) [glyceraldehyde 3-phosphate]: the KD entry in test [1], in [2], in [6], in test [7] and in [11] was “Nb” each time. Besides, the entries for the “chemotaxis (capillary assay)” value (in the test with P. atrosepticum SCRI1043; in test [3]) were “Modest chemoattraction” and “Only glycerol 2-phosphate served as an attractant for the mutant”, respectively. For the same compound, the “growth as sole carbon source” value in [4] is on record as “devoid of apparent metabolic value”. The figures for the dissociation constant (Kd) (in test [5]; in test [9]; in the test “ITC binding to R7-LBD”) were 100 ± 2 µM, 58 ± 2 µM and 126 ± 9 µM, respectively. Also, the “growth as sole phosphorus source” value in test [8] is “devoid of apparent metabolic value”. Moreover, the “binding in microcalorimetric titration” value in [10] was “absence of binding”.

Regarding `O=P(O)(O)OC(CO)CO` [glycerol 2-phosphate], the KD entry was “Nb” in test [1]; “Nb” in test [2]; “bound” in test [6]; “Nb” in test [7]; “Nb” in test [11]. The “chemotaxis (capillary assay)” value in the test with P. atrosepticum SCRI1043 is reported as “Modest chemoattraction”; in [3], “served as an attractant”. Further, the chemotaxis entry (in [12]; with Bacillus subtilis) was “weak chemotaxis” each time. The Kd was found to be 60 ± 2 µM in test [5], 36 ± 2 µM in test [6], 72 ± 2 µM in [9] and 223 ± 45 µM in “ITC binding to R7-LBD”. In test [8], the “growth as sole phosphorus source” value is “permitted growth”.
